Measurements published in patent US10294202B2, “Pyrrolidinones as herbicides” (FMC Corporation, priority 2013, dated 2019).

How the values were obtained:
corn = experiment: Test A pre-/postemergence herbicide test; type: in vivo, Zea mays; conditions: for Corn plant response rating: Preemergence, visual rating on 0 to 100 scale (0 no effect, 100 complete control)
Outline: (§1)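 Scoring was visual, relative to untreated controls, on a 0–100 scale after about 10 greenhouse days. Preemergence treatment used a directed soil spray over seeded loam/sand; postemergence treatment targeted one- to two-leaf plants of 2–10 cm.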

ducksalad = experiment: Test B flooded paddy test; type: in vivo, Heteranthera limosa; conditions: 250 g ai/ha, Flood; scale of 0 to 100 where 0 is no effect and 100 is complete control
Outline: (§2)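 2-leaf plants; flood 3 cm over soil; compound into paddy water; depth held. Greenhouse 13–15 d. Visual rating vs controls, 0 (no effect) to 100 (complete control); dash = not tested.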

pigweed = experiment: Test C pre-/postemergence herbicide test; type: in vivo, Amaranthus retroflexus
Outline: (§3)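 Response scores range from 0, meaning no effect, to 100, meaning complete control, assigned visually by comparison with controls roughly two weeks (13 to 15 days) after spraying. Applications were made preemergence to seeded loam–sand soil and postemergence to 1- to 4-leaf plants.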

sedge, umbrella = experiment: Test B flooded paddy test; type: in vivo, Cyperus difformis; conditions: 250 g ai/ha, Flood; scale of 0 to 100 where 0 is no effect and 100 is complete control
Outline: as §2

giant foxtail = experiment: Test A pre-/postemergence herbicide test; type: in vivo, Setaria faberii; conditions: for Foxtail, Giant plant response rating: Preemergence, visual rating on 0 to 100 scale (0 no effect, 100 complete control)
Outline: as §1

wheat (winter wheat) = experiment: Test C pre-/postemergence herbicide test; type: in vivo, Triticum aestivum
Outline: as §3

johnsongrass = experiment: Test C pre-/postemergence herbicide test; type: in vivo, Sorghum halepense
Outline: as §3

oat, wild = experiment: Test C pre-/postemergence herbicide test; type: in vivo, Avena fatua
Outline: as §3

rice = experiment: Test B flooded paddy test; type: in vivo, Oryza sativa; conditions: 250 g ai/ha, Flood; scale of 0 to 100 where 0 is no effect and 100 is complete control
Outline: as §2

lambsquarters = experiment: Test C pre-/postemergence herbicide test; type: in vivo, Chenopodium album
Outline: as §3

crabgrass, large = experiment: Test C pre-/postemergence herbicide test; type: in vivo, Digitaria sanguinalis
Outline: as §3

ragweed = experiment: Test C pre-/postemergence herbicide test; type: in vivo, Ambrosia elatior
Outline: as §3

[1] = Postemergence, 125 g ai/ha, 0 to 100 scale, 0 no effect, 100 complete control
[2] = Postemergence, 500 g ai/ha, 0 to 100 scale (0 no effect, 100 complete control)
[3] = preemergence, 500 g ai/ha, 0 to 100 scale
[4] = Postemergence, 31 g ai/ha, scale 0 (no effect) to 100 (complete control)
[5] = Postemergence, 62 g ai/ha, scale 0 to 100 (0 no effect, 100 complete control)
[6] = Postemergence, 125 g ai/ha, scale 0 to 100 (0 no effect, 100 complete control)
[7] = Postemergence, 250 g ai/ha, scale 0 to 100 (0 no effect, 100 complete control)
[8] = Preemergence, 62 g ai/ha, scale 0 to 100
[9] = Preemergence, 125 g ai/ha, scale 0 to 100 (0 no effect, 100 complete control)
[10] = Preemergence, 31 g ai/ha, scale 0 to 100 (0 no effect, 100 complete control)
[11] = Preemergence, 31 g ai/ha, scale 0 to 100, 0 is no effect and 100 is complete control

SMILES: O=C1NCC(c2ccc(Cl)c(F)c2)C1C(=O)Nc1cccc(F)c1F (centres unmarked) [Compound 52]
- Plant response rating, Corn (corn; [1]): 0
- Plant response rating, Corn (corn; [2]): 30
- Corn plant response rating (corn; 125 g ai/ha): 0
- Plant response rating, Corn (corn; [3]): 0
- Plant response rating, Ducksalad (ducksalad): 90
- Plant response rating, Pigweed (pigweed; [4]): 25
- Plant response rating, Pigweed (pigweed; [5]): 40
- Plant response rating, Pigweed (pigweed; [6]): 50
- Plant response rating, Pigweed (pigweed; [7]): 60
- Plant response rating, Pigweed (pigweed; [8]): 20
- Plant response rating, Pigweed (pigweed; [9]): 55
- Plant response rating, Sedge, Umbrella (sedge, umbrella): 85
- Plant response rating, Foxtail, Giant (giant foxtail; [1]): 80
- Plant response rating, Foxtail, Giant (giant foxtail; [2]): 80
- Foxtail, Giant plant response rating (giant foxtail; 125 g ai/ha): 80
- Plant response rating, Foxtail, Giant (giant foxtail; [3]): 90
- Plant response rating, Wheat (wheat (winter wheat); [4]): 0
- Plant response rating, Wheat (wheat (winter wheat); [5]): 0
- Plant response rating, Wheat (wheat (winter wheat); [6]): 0
- Plant response rating, Wheat (wheat (winter wheat); [7]): 0
- Plant response rating, Wheat (wheat (winter wheat); [8]): 0
- Plant response rating, Wheat (wheat (winter wheat); [9]): 10
- Plant response rating, Johnsongrass (johnsongrass; [4]): 0
- Plant response rating, Johnsongrass (johnsongrass; [5]): 0
- Plant response rating, Johnsongrass (johnsongrass; [6]): 0
- Plant response rating, Johnsongrass (johnsongrass; [7]): 0
- Plant response rating, Johnsongrass (johnsongrass; [8]): 0
- Plant response rating, Johnsongrass (johnsongrass; [9]): 10
- Plant response rating, Oat, Wild (oat, wild; [4]): 0
- Plant response rating, Oat, Wild (oat, wild; [5]): 0
- Plant response rating, Oat, Wild (oat, wild; [6]): 0
- Plant response rating, Oat, Wild (oat, wild; [7]): 0
- Plant response rating, Oat, Wild (oat, wild; [8]): 0
- Plant response rating, Oat, Wild (oat, wild; [9]): 0
- Plant response rating, Rice (rice): 25
- Plant response rating, Lambsquarters (lambsquarters; [5]): 10
- Plant response rating, Lambsquarters (lambsquarters; [6]): 40
- Plant response rating, Lambsquarters (lambsquarters; [7]): 40
- Plant response rating, Lambsquarters (lambsquarters; [8]): 40
- Plant response rating, Lambsquarters (lambsquarters; [9]): 70
- Plant response rating, Crabgrass, Large (crabgrass, large; [4]): 50
- Plant response rating, Crabgrass, Large (crabgrass, large; [5]): 55
- Plant response rating, Crabgrass, Large (crabgrass, large; [6]): 55
- Plant response rating, Crabgrass, Large (crabgrass, large; [7]): 75
- Plant response rating, Crabgrass, Large (crabgrass, large; [8]): 90
- Plant response rating, Crabgrass, Large (crabgrass, large; [9]): 90
- Crabgrass, Large plant response rating (crabgrass, large; [10]): 80
- Plant response rating, Crabgrass, Large (crabgrass, large; Preemergence, 250 g ai/ha, scale 0 to 100 (0 no effect, 100 complete control)): 95
- Plant response rating, Ragweed (ragweed; [4]): 10
- Plant response rating, Ragweed (ragweed; [5]): 10
- Plant response rating, Ragweed (ragweed; [6]): 50
- Plant response rating, Ragweed (ragweed; [7]): 55
- Plant response rating, Ragweed (ragweed; [8]): 0
- Plant response rating, Ragweed (ragweed; [9]): 0

SMILES: O=C1NCC(c2ccc(F)c(Cl)c2)C1C(=O)Nc1ccccc1F (centres unmarked) [Compound 60]
- Plant response rating, Corn (corn; [1]): 0
- Plant response rating, Corn (corn; [2]): 60
- Corn plant response rating (corn; 125 g ai/ha): 0
- Plant response rating, Corn (corn; [3]): 0
- Plant response rating, Ducksalad (ducksalad): 90
- Plant response rating, Pigweed (pigweed; [5]): 20
- Plant response rating, Pigweed (pigweed; [6]): 20
- Plant response rating, Pigweed (pigweed; [8]): 10
- Plant response rating, Pigweed (pigweed; [9]): 20
- Plant response rating, Sedge, Umbrella (sedge, umbrella): 60
- Plant response rating, Foxtail, Giant (giant foxtail; [1]): 80
- Plant response rating, Foxtail, Giant (giant foxtail; [2]): 80
- Foxtail, Giant plant response rating (giant foxtail; 125 g ai/ha): 90
- Plant response rating, Foxtail, Giant (giant foxtail; [3]): 90
- Plant response rating, Wheat (wheat (winter wheat); [4]): 0
- Plant response rating, Wheat (wheat (winter wheat); [5]): 0
- Plant response rating, Wheat (wheat (winter wheat); [6]): 5
- Plant response rating, Wheat (wheat (winter wheat); [8]): 0
- Plant response rating, Wheat (wheat (winter wheat); [9]): 0
- Plant response rating, Johnsongrass (johnsongrass; [4]): 5
- Plant response rating, Johnsongrass (johnsongrass; [5]): 5
- Plant response rating, Johnsongrass (johnsongrass; [6]): 5
- Plant response rating, Johnsongrass (johnsongrass; [8]): 20
- Plant response rating, Johnsongrass (johnsongrass; [9]): 20
- Plant response rating, Oat, Wild (oat, wild; [4]): 0
- Plant response rating, Oat, Wild (oat, wild; [5]): 0
- Plant response rating, Oat, Wild (oat, wild; [6]): 0
- Plant response rating, Oat, Wild (oat, wild; [8]): 0
- Plant response rating, Oat, Wild (oat, wild; [9]): 5
- Plant response rating, Rice (rice): 0
- Plant response rating, Lambsquarters (lambsquarters; [4]): 5
- Plant response rating, Lambsquarters (lambsquarters; [5]): 20
- Plant response rating, Lambsquarters (lambsquarters; [6]): 20
- Plant response rating, Lambsquarters (lambsquarters; [9]): 10
- Plant response rating, Crabgrass, Large (crabgrass, large; [4]): 20
- Plant response rating, Crabgrass, Large (crabgrass, large; [5]): 50
- Plant response rating, Crabgrass, Large (crabgrass, large; [6]): 75
- Plant response rating, Crabgrass, Large (crabgrass, large; [8]): 95
- Plant response rating, Crabgrass, Large (crabgrass, large; [9]): 95
- Crabgrass, Large plant response rating (crabgrass, large; [10]): 85
- Plant response rating, Ragweed (ragweed; [4]): 10
- Plant response rating, Ragweed (ragweed; [5]): 25
- Plant response rating, Ragweed (ragweed; [6]): 35
- Plant response rating, Ragweed (ragweed; [8]): 10
- Plant response rating, Ragweed (ragweed; [9]): 25

SMILES: O=C1NCC(c2cccc(OC(F)(F)F)c2)C1C(=O)Nc1ccccc1F (centres unmarked) [Compound 69]
- Plant response rating, Corn (corn; [1]): 20
- Plant response rating, Corn (corn; [2]): 90
- Corn plant response rating (corn; 125 g ai/ha): 0
- Plant response rating, Corn (corn; [3]): 0
- Plant response rating, Ducksalad (ducksalad): 85
- Pigweed plant response rating (pigweed; [11]): 15
- Plant response rating, Pigweed (pigweed; [8]): 25
- Plant response rating, Pigweed (pigweed; [9]): 25
- Plant response rating (scale of 0 to 100), Pigweed (pigweed; Preemergence, 250 g ai/ha): 25
- Plant response rating, Sedge, Umbrella (sedge, umbrella): 65
- Plant response rating, Foxtail, Giant (giant foxtail; [1]): 80
- Plant response rating, Foxtail, Giant (giant foxtail; [2]): 80
- Foxtail, Giant plant response rating (giant foxtail; 125 g ai/ha): 90
- Plant response rating, Foxtail, Giant (giant foxtail; [3]): 90
- Wheat plant response rating (wheat (winter wheat); [11]): 0
- Plant response rating, Wheat (wheat (winter wheat); [8]): 0
- Plant response rating, Wheat (wheat (winter wheat); [9]): 5
- Plant response rating (scale of 0 to 100), Wheat (wheat (winter wheat); Preemergence, 250 g ai/ha): 5
- Johnsongrass plant response rating (johnsongrass; [11]): 0
- Plant response rating, Johnsongrass (johnsongrass; [8]): 0
- Plant response rating, Johnsongrass (johnsongrass; [9]): 0
- Plant response rating (scale of 0 to 100), Johnsongrass (johnsongrass; Preemergence, 250 g ai/ha): 0
- Plant response rating, Oat, Wild (oat, wild; [8]): 0
- Plant response rating, Oat, Wild (oat, wild; [9]): 5
- Plant response rating (scale of 0 to 100), Oat, Wild (oat, wild; Preemergence, 250 g ai/ha): 5
- Plant response rating, Rice (rice): 30
- Lambsquarters plant response rating (lambsquarters; [11]): 35
- Plant response rating, Lambsquarters (lambsquarters; [8]): 35
- Plant response rating, Lambsquarters (lambsquarters; [9]): 65
- Plant response rating (scale of 0 to 100), Lambsquarters (lambsquarters; Preemergence, 250 g ai/ha): 85
- Crabgrass, Large plant response rating (crabgrass, large; [11]): 90
- Plant response rating, Crabgrass, Large (crabgrass, large; [8]): 90
- Plant response rating, Crabgrass, Large (crabgrass, large; [9]): 95
- Plant response rating (scale of 0 to 100), Crabgrass, Large (crabgrass, large; Preemergence, 250 g ai/ha): 95
- Ragweed plant response rating (ragweed; [11]): 0
- Plant response rating, Ragweed (ragweed; [8]): 0
- Plant response rating, Ragweed (ragweed; [9]): 0
- Plant response rating (scale of 0 to 100), Ragweed (ragweed; Preemergence, 250 g ai/ha): 20
